Source: patent publication US7910780B2, “Method for purifying terephthalaldehyde” (LG Chem, Ltd., priority 2006, dated 2011)

Columns and labels:
[1] = Solubility of terephthalaldehyde and major impurities in p-xylene and DMSO; settings: p-xylene, organic solvent or mixture
physchem = settings: organic solvent or mixture

Structure (SMILES)	solubility ([1]; 25 °C, in p-xylene (25° C.))	solubility ([1]; 100 °C, in p-xylene (100° C.))	solubility (physchem; 25 °C)	solubility (physchem; 100 °C)
O=Cc1ccc(C(=O)O)cc1 [4-CBA, 4-carboxybenzaldehyde]	< 2000 µg/mL	< 20000 µg/mL		
O=Cc1ccc(O)cc1 [4-HBA, 4-hydroxybenzaldehyde]			< 2000 µg/mL	< 20000 µg/mL
Oc1ccc(O)cc1 [HQ, hydroquinone]			< 5000 µg/mL	< 5000 µg/mL
O=C(O)c1ccc(C(=O)O)cc1 [TPA, terephthalic acid]				< 20000 µg/mL
